# Where two headings read alike, the source gives them in different places.
# Legend:
# Assay type in all cases: in vivo
# Alternaria solani = assay: Tomato early blight (ALTESO) disease control; settings: 24 h, 1 Day Protectant, high volume, read-out: Disease Control ALTESO 1 DP
# Description: Technical grades of materials were dissolved in acetone, which were then mixed with nine volumes of water containing 110 ppm Triton X-100. The fungicide solutions were applied onto wheat seedlings using an automated booth sprayer to run-off. All sprayed plants were allowed to air dry prior to further handling. All fungicides were evaluated using the aforementioned method for their activity vs. all target diseases. Wheat leaf blotch and brown rust activity were also evaluated using track spray applications, in which case the fungicides were formulated as EC formulations, containing 0.1% Trycol 5941 in the spray solutions. Tomato plants (variety Outdoor girl) were propagated in soil-less Metro mix, with each pot having one plant, and used when 12 to 14 days old. Test plants were inoculated with an aqueous spore suspension of Alternaria solani 24 hr after fungicide treatments. After inoculation the plants were kept in 100% relative humidity (one day in a dark dew chamber followed by two to three days in a lighted dew chamber at 20° C.) to permit spores to germinate and infect the leaf. The plants were then transferred to a growth room at 22° C. for disease to develop. Fungicide formulation, application and disease assessment on the sprayed leaves followed the procedures as described in the Example A.
# Rhyncosporium secalis = assay: Barley scald (RHYNSE) disease control; settings: 24 h, High volume application, 1 Day Protectant, read-out: RHYNSE 1 DP disease control
# Description: (§1) Technical grades of materials were dissolved in acetone, which were then mixed with nine volumes of water containing 110 ppm Triton X-100. The fungicide solutions were applied onto wheat seedlings using an automated booth sprayer to run-off. All sprayed plants were allowed to air dry prior to further handling. All fungicides were evaluated using the aforementioned method for their activity vs. all target diseases. Wheat leaf blotch and brown rust activity were also evaluated using track spray applications, in which case the fungicides were formulated as EC formulations, containing 0.1% Trycol 5941 in the spray solutions. Barley seedlings (variety Harrington) were propagated in soil-less Metro mix, with each pot having 8 to 12 plants, and used in the test when first leaf was fully emerged. Test plants were inoculated by an aqueous spore suspension of Rhyncosporium secalis 24 hr after fungicide treatments. After inoculation the plants were kept in a dew room at 20° C. with 100% relative humidity for 48 hr. The plants were then transferred to a greenhouse set at 20° C. for disease to develop. Fungicide formulation, application and disease assessment on the sprayed leaves followed the procedures as described in the Example A.
# [1] = tested on: Puccinia triticina; Synonym: Puccinia recondite f. sp. tritici; assay: Wheat brown rust (PUCCRT) disease control on wheat seedlings; settings: Puccinia triticina, High volume application, 100 ppm
# How it was run: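 Yuma wheat grown to first fully emerged leaf was inoculated with Puccinia triticina spore suspension either before or after fungicide treatment, held overnight at 22° C. and 100% RH in darkness, then kept at 24° C. Fungicide applied by booth sprayer to run-off (acetone/water, 110 ppm Triton X-100) or as EC by track spray.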
# [2] = tested on: Blumeria graminis f. sp. hordei; Synonym: Erysiphe graminis f. sp. hordei; assay: Barley powdery mildew (ERYSGH) disease control; settings: 24 h, 1 Day Protectant, high volume, read-out: Disease Control ERYSGH 1 DP
# Description: as §1, with “dusting with infected stock plants” for “an aqueous spore suspension of Rhyncosporium secalis”, “in” for “in a dew room at 20° C. with 100% relative humidity for 48 hr. The plants were then transferred to”
# Phakopsora pachyrhizi = assay: Asian soybean rust (PHAKPA) disease control; settings: topical, high volume
# Description: Technical grades of materials were dissolved in acetone, which were then mixed with nine volumes of water containing 0.011% Tween 20. The fungicide solutions were applied onto soybean seedlings using an automated booth sprayer to run-off. All sprayed plants were allowed to air dry prior to further handling.
# Soybean plants (variety Williams 82) were grown in soil-less Metro mix, with one plant per pot. Two weeks old seedlings were used for testing. Plants were inoculated either 3 days prior to or 1 day after fungicide treatments. Plants were incubated for 24 h in a dark dew room at 22° C. and 100% RH then transferred to a growth room at 23° C. for disease to develop. Disease severity was assessed on the sprayed leaves.
# [3] = tested on: Mycosphaerella graminicola; Anamorph: Septoria tritici; assay: Leaf blotch of wheat (SEPTTR) disease control on wheat seedlings; settings: Zymoseptoria tritici, High volume application, 100 ppm
# How it was run: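 Protective or curative format: Septoria tritici inoculation either preceded or followed fungicide application to first-leaf Yuma wheat. Severity scored 0–100%; control expressed versus untreated.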
# [4] = 24 h, 1 Day Protectant, read-out: PUCCRT 1DP disease control
# [5] = 72 h, 3 Day Curative, read-out: PUCCRT 3DC disease control
# [6] = 24 h, 1 Day Protectant, read-out: Disease Control PHAKPA 1DP
# [7] = 72 h, 3 Day Curative, read-out: Disease Control PHAKPA 3DC
# [8] = 24 h, 1 Day Protectant, read-out: SEPTTR 1DP disease control
# [9] = 72 h, 3 Day Curative, read-out: SEPTTR 3DC disease control
SMILES,pest or weed control at 100 ppm (Alternaria solani) [%],pest or weed control at 100 ppm (Rhyncosporium secalis) [%],"pest or weed control at 100 ppm [1, 4] [%]","pest or weed control at 100 ppm [1, 5] [%]",pest or weed control at 100 ppm [2] [%],pest or weed control at 25 ppm (Phakopsora pachyrhizi; [6]) [%],pest or weed control at 25 ppm (Phakopsora pachyrhizi; [7]) [%],"pest or weed control at 100 ppm [3, 8] [%]","pest or weed control at 100 ppm [3, 9] [%]"
COc1ccnc(C(=O)N[C@H]2CCC[C@H](Oc3ccccc3)[C@@H](Oc3ccccc3)[C@H](C)OC2=O)c1OCOC(C)=O [F20],0 to 80,80 to 100,80 to 100,80 to 100,0 to 80,80 to 100,80 to 100,80 to 100,80 to 100
COc1ccnc(C(=O)N[C@H]2CCC[C@H](OCC(C)C)[C@@H](Oc3ccccc3)[C@H](C)OC2=O)c1OCOC(C)=O [F26],,,80 to 100,80 to 100,,80 to 100,80 to 100,80 to 100,80 to 100
COc1ccnc(C(=O)N[C@H]2CCC[C@H](Oc3ccccc3)[C@@H](OCC(C)C)[C@H](C)OC2=O)c1OCOC(C)=O [F28],0 to 80,80 to 100,80 to 100,80 to 100,80 to 100,80 to 100,0 to 80,80 to 100,80 to 100
COc1ccnc(C(=O)N[C@H]2CCC[C@H](OCC(C)C)[C@@H](OCC(C)C)[C@H](C)OC2=O)c1OCOC(C)=O [F29],80 to 100,,80 to 100,80 to 100,80 to 100,80 to 100,,80 to 100,80 to 100
COc1ccnc(C(=O)N[C@H]2CCC[C@H](OCc3ccccc3)[C@@H](OCc3ccccc3)[C@H](C)OC2=O)c1OCOC(C)=O [F30],0 to 80,,80 to 100,80 to 100,0 to 80,80 to 100,0 to 80,80 to 100,0 to 80
COc1ccnc(C(=O)N[C@H]2CCC[C@H](OCc3ccccc3)[C@@H](Oc3ccccc3)[C@H](C)OC2=O)c1OCOC(C)=O [F31],0 to 80,,80 to 100,80 to 100,0 to 80,,,80 to 100,80 to 100
COc1ccnc(C(=O)N[C@H]2CCC[C@H](OCC(C)C)[C@@H](Oc3ccccc3)[C@H](C)OC2=O)c1OCOC(=O)C(C)C [F34],0 to 80,,80 to 100,80 to 100,0 to 80,80 to 100,80 to 100,80 to 100,80 to 100
COc1ccnc(C(=O)N[C@H]2CCC[C@H](Oc3ccccc3)[C@@H](OCC(C)C)[C@H](C)OC2=O)c1OCOC(=O)C(C)C [F35],80 to 100,,80 to 100,80 to 100,80 to 100,80 to 100,,80 to 100,80 to 100
COc1ccnc(C(=O)N[C@H]2CCC[C@H](Oc3ccccc3)[C@@H](Oc3ccccc3)[C@H](C)OC2=O)c1OCOC(=O)C(C)C [F36],80 to 100,,80 to 100,80 to 100,0 to 80,80 to 100,80 to 100,80 to 100,80 to 100
COc1ccnc(C(=O)N[C@H]2CCC[C@H](OCC(C)C)[C@@H](OCC(C)C)[C@H](C)OC2=O)c1OCOC(=O)C(C)C [F37],80 to 100,,80 to 100,80 to 100,80 to 100,80 to 100,,80 to 100,80 to 100
COc1ccnc(C(=O)N[C@H]2CCC[C@H](OCC(C)C)[C@@H](OC3CCCC3)[C@H](C)OC2=O)c1OCOC(=O)C(C)C [F38],80 to 100,,80 to 100,80 to 100,80 to 100,80 to 100,80 to 100,80 to 100,80 to 100
COCCC(=O)Oc1c(OC)ccnc1C(=O)N[C@H]1CCC[C@H](Oc2ccccc2)[C@@H](OCCCc2ccccc2)[C@H](C)OC1=O [F132],80 to 100,0 to 80,80 to 100,80 to 100,0 to 80,,,80 to 100,80 to 100
COc1ccnc(C(=O)N[C@H]2CCC[C@H](OCCCc3ccccc3)[C@@H](Oc3ccccc3)[C@H](C)OC2=O)c1OC(C)=O [F134],0 to 80,80 to 100,80 to 100,80 to 100,0 to 80,,,80 to 100,80 to 100
COc1ccc(O[C@H]2CCC[C@H](NC(=O)c3nccc(OC)c3OCOC(=O)C(C)C)C(=O)O[C@@H](C)[C@@H]2OC2CCCC2)cc1 [F169],80 to 100,80 to 100,80 to 100,80 to 100,0 to 80,,,80 to 100,80 to 100
COc1ccnc(C(=O)N[C@H]2CCC[C@H](OCCCC(F)(F)F)[C@@H](OC3CCCC3)[C@H](C)OC2=O)c1OCOC(=O)C(C)C [F171],80 to 100,80 to 100,80 to 100,80 to 100,0 to 80,,,80 to 100,80 to 100
COc1ccnc(C(=O)N[C@H]2CCC[C@H](OCCCC(F)(F)F)[C@@H](OC3CCCC3)[C@H](C)OC2=O)c1OC(C)=O [F173],80 to 100,80 to 100,80 to 100,80 to 100,0 to 80,,,80 to 100,80 to 100
